In general, IC50 refers to the midpoint of a concentration-inhibition curve. For orientation: half-life means the time needed for the level to fall by half in the phase considered. High values mean slow loss, low ones fast loss.

Series [1] relates to SH-SY5Y. Put plainly: Cytotoxicity against human SH-SY5Y cells assessed as inhibition of cell viability incubated for 48 hrs by CCK8 assay. The class given is functional, cell-based. (Tetrazolium dyes change colour on reduction, which living cells bring about.)
Series [2] relates to N2a. The series can be described thus: Cytotoxicity against mouse Neuro2a cells assessed as inhibition of cell viability incubated for 48 hrs by CCK8 assay. The series is classed as functional, cell-based.
The subject of the next series is PC-12. The series can be described thus: Cytotoxicity against rat PC12 cells assessed as inhibition of cell viability incubated for 48 hrs by CCK8 assay. The series is classed as functional, cell-based. The conditions noted are these: PC-12, 48 h.
For the next series, the system named is U-87 MG. Put plainly: Cytotoxicity against human U-87 MG cells assessed as inhibition of cell viability incubated for 48 hrs by CCK8 assay. The series is classed as functional, cell-based, U-87MG ATCC.
In series [3] the test system is N2a. The series can be described thus: Induction of cell proliferation in mouse Neuro2a cells at 50 uM incubated for 48 hrs by CCK8 assay. The class given is functional, cell-based.
Series [4] relates to SH-SY5Y. The series can be described thus: Neuroprotective effect against MPP+-induced cytotoxicity in human SH-SY5Y cells assessed as increase in cell viability at 50 uM incubated for 24 hrs followed by MPP+ addition measured after 4 hrs by CCK8 assay relative to control. The series is classed as functional. The conditions noted are these: time 28 hrs.
The test system of series [5] is Neuron. The series can be described thus: Induction of neurite growth in mouse primary neurons assessed as increase in neurite length at 50 uM incubated for 48 hrs by imaging analysis. The class given is functional, cell-based.
Series [6] deals with Neuron. The series can be described thus: Induction of neurite growth in mouse primary neurons at 50 uM incubated for 48 hrs in presence of NGF by imaging analysis. The class given is functional, cell-based.
Series [7] deals with Neuron. The series can be described thus: Induction of neurite growth in mouse primary neurons assessed as increase in MAP2 level incubated for 48 hrs in presence of NGF by Western blot analysis. The class given is functional, cell-based. In general terms: Immunoblotting shows a protein as a band on a membrane.
Series [8] has as its system A-431. Put plainly: Effect on Rac2 gene expression in human A-431 cells by RNA-Seq analysis. The class given is functional, cell-based.
Series [9] concerns A-431. Put plainly: Effect on Wnt7b gene expression in human A-431 cells by RNA-Seq analysis. The series is classed as functional, cell-based.
The subject of series [10] is N2a. Put plainly: Downregulation of Wnt7b level in mouse Neuro2a cells at 50 uM incubated for 48 hrs by Western blot analysis. The series is classed as functional, cell-based.
The subject of series [11] is N2a. The series can be described thus: Effect on […] level in mouse Neuro2a cells at 50 uM incubated for 48 hrs by Western blot analysis. The class given is functional, cell-based.
A short description of series [12]: Half life in C57BL/6 mouse at 10 mg/kg, iv measured for 24 hrs. The series is classed as ADME, organism-based. Conditions: in vivo.
The nature of series [13]: Clearance in C57BL/6 mouse at 10 mg/kg, iv measured for 24 hrs. The conditions noted are these: in vivo. The series is classed as ADME, organism-based.

Calls of active or inactive are those of the source.

With `CCCCCCCCCCCCC/C=C/[C@@H](O)[C@H](CO[C@@H]1O[C@H](CO)[C@@H](O[C@@H]2O[C@H](CO)[C@H](O)[C@H](O[C@]3(C(=O)O)C[C@H](O)[C@@H](NC(=O)c4cccc([N+](=O)[O-])c4)C([C@@H](O)[C@H](O)CO)O3)[C@H]2O)[C@H](O)[C@H]1O)NC(=O)CCCCCCCCCCCCCCCCC` (some centres not stated), the IC50 with SH-SY5Y [1], in the series on N2a [2], with PC-12 and with U-87 MG was above 200 µM throughout. For the same molecule, in the series with N2a [3], the result was Active. Further, the Activity in the series with SH-SY5Y [4] amounted to 9.3%.

As to `CCCCCCCCCCCCC/C=C/[C@@H](O)[C@H](CO[C@@H]1O[C@H](CO)[C@@H](O[C@@H]2O[C@H](CO)[C@H](O)[C@H](O[C@]3(C(=O)O)C[C@H](O)[C@@H](NC(=O)c4cc(C)cc(C)c4)C([C@@H](O)[C@H](O)CO)O3)[C@H]2O)[C@H](O)[C@H]1O)NC(=O)CCCCCCCCCCCCCCCCC` (some centres not stated), the IC50 in the series on SH-SY5Y [1], in the series on N2a [2], in the series on PC-12 and in the series with U-87 MG was above 200 µM in each case.

On to `CCCCCCCCCCCCC/C=C/[C@@H](O)[C@H](CO[C@@H]1O[C@H](CO)[C@@H](O[C@@H]2O[C@H](CO)[C@H](O)[C@H](O[C@]3(C(=O)O)C[C@H](O)[C@@H](NC(=O)Cc4cccc([N+](=O)[O-])c4)C([C@@H](O)[C@H](O)CO)O3)[C@H]2O)[C@H](O)[C@H]1O)NC(=O)CCCCCCCCCCCCCCCCC` (some centres not stated), for which the IC50 in the series with SH-SY5Y [1], with N2a [2], in the series with PC-12 and with U-87 MG was above 200 µM in each case. In addition, the result in the series with N2a [3], in the series with Neuron [5], with Neuron [6], with Neuron [7], with A-431 [8] and in the series with A-431 [9] was Active. In addition, the result in the series with N2a [10] was Active. The Activity in the series on SH-SY5Y [4] came out at 18.8%. Also, in the series with N2a [11], the outcome was inactive. Moreover, in series [12], the half-life is 49.3 h. The molecule further displayed a CL in [13] of 0.467 µL/min/mg.

Regarding `CCCCCCCCCCCCC/C=C/[C@@H](O)[C@H](CO[C@@H]1O[C@H](CO)[C@@H](O[C@@H]2O[C@H](CO)[C@H](O)[C@H](O[C@]3(C(=O)O)C[C@H](O)[C@@H](NC(=O)Cc4ccc(Br)cc4)C([C@@H](O)[C@H](O)CO)O3)[C@H]2O)[C@H](O)[C@H]1O)NC(=O)CCCCCCCCCCCCCCCCC` (some centres not stated), the IC50 in the series with SH-SY5Y [1], in the series with N2a [2], in the series on PC-12 and in the series on U-87 MG was above 200 µM in each case.

Consider `CCCCCCCCCCCCC/C=C/[C@@H](O)[C@H](CO[C@@H]1O[C@H](CO)[C@@H](O[C@@H]2O[C@H](CO)[C@H](O)[C@H](O[C@]3(C(=O)O)C[C@H](O)[C@@H](NC(=O)Cc4ccc(C)cc4)C([C@@H](O)[C@H](O)CO)O3)[C@H]2O)[C@H](O)[C@H]1O)NC(=O)CCCCCCCCCCCCCCCCC` (some centres not stated), for which the IC50 in the series with SH-SY5Y [1], in the series with N2a [2], in the series on PC-12 and with U-87 MG was above 200 µM throughout.

For the molecule `CCCCCCCCCCCCC/C=C/[C@@H](O)[C@H](CO[C@@H]1O[C@H](CO)[C@@H](O[C@@H]2O[C@H](CO)[C@H](O)[C@H](O[C@]3(C(=O)O)C[C@H](O)[C@@H](NC(=O)c4ccncc4)C([C@@H](O)[C@H](O)CO)O3)[C@H]2O)[C@H](O)[C@H]1O)NC(=O)CCCCCCCCCCCCCCCCC` (some centres not stated), the IC50 in the series on SH-SY5Y [1], in the series on N2a [2], in the series with PC-12 and in the series with U-87 MG was above 200 µM throughout.

Values taken from ChEMBL document CHEMBL5543073, “Synthesis, biological activity evaluation and mechanism analysis of new ganglioside GM3 derivatives as potential agents for nervous functional recovery” (Eur J Med Chem, 2024).
